In test [1] the test system is HCVPV1a subgenomic replicon (wild type 1a). Briefly: HCV replicon RNA replication assay, wild type 1a. Type of test: cell-based, HCV genotype 1a (strain H77), Huh-7 cells. Conditions: Hepatitis C virus, read-out: WT 1a Ec50.
Test [2] concerns HCVPV1b subgenomic replicon (wild type 1b). Put plainly: HCV replicon RNA replication assay, wild type 1b. Type of test: cell-based, HCV genotype 1b (Con-1), Huh-7 cells. The conditions noted are these: Hepatitis C virus, read-out: WT 1b Ec50.
For test [3], the system named is HCV genotype 1a subgenomic replicon with NS3 resistance mutation D168V. Put plainly: HCV replicon RNA replication assay, D168V 1a. In kind it is cell-based, HCV genotype 1a (strain H77), Huh-7 cells. Conditions: Hepatitis C virus, read-out: D168V 1a Ec50 (nM).
The subject of test [4] is HCV genotype 1b subgenomic replicon with NS3 resistance mutation D168V. Put plainly: HCV replicon RNA replication assay, D168V 1b. In kind it is cell-based, HCV genotype 1b (Con-1), Huh-7 cells. The conditions noted are these: Hepatitis C virus, Huh-7, 72 h, read-out: D168V 1b Ec50 (nM).
For test [5], the system named is HCV genotype 1a subgenomic replicon with NS3 resistance mutation R155K. Briefly: HCV replicon RNA replication assay, R155K 1a. Type of test: cell-based, HCV genotype 1a (strain H77), Huh-7 cells. Conditions: Hepatitis C virus, Huh-7, 72 h, read-out: R155K 1a Ec50 (nM).
The mark [6] stands for this setting: Table 1, luciferase replicon, Huh-7, 72 h.

In patent publication US20120077737A1, “HEPATITIS C INHIBITOR COMPOUNDS” (priority 2009, published 2012) one finds EC50 data, which are given here for five compounds.

The structures appear in SMILES notation. Read-outs that look alike come from different tables or passages of the source.

Regarding `COc1ccc2c(O[C@@H]3C[C@H]4C(=O)N[C@]5(C(=O)NS(=O)(=O)C6(C)CC6)C[C@H]5/C=C\CCCCC[C@H](NC(=O)c5ccn(CC(F)F)n5)C(=O)N4C3)cc(OC(C)C)nc2c1C` [Compound 1001, (2R,6S,12Z,13aS,14aR,16aS)-6-({[1-(2,2-difluoroethyl)-1H-pyrazol-3-yl]carbonyl}amino)-2-{[7-methoxy-8-methyl-2-(propan-2-yloxy)quinolin-4-yl]oxy}-N-[(1-methylcyclopropyl)sulfonyl]-5,16-dioxo-1,2,3,6,7,8,9,10,11,13a,14,15,16,16a-tetradecahydrocyclopropa[e]pyrrolo[1,2-a][1,4]diazacyclopentadecine-14a(5H)-carboxamide], the EC50 in test [1] (setting [6]) was 0.22 nM; in test [2] (setting [6]) it was 0.17 nM; in test [3] (Huh-7, 72 h), 0.78 nM; in test [4] it was 0.1 nM; in test [5] it was 0.96 nM.

Turning to `COCCn1ccc(C(=O)N[C@H]2CCCCC/C=C\[C@@H]3C[C@@]3(C(=O)NS(=O)(=O)C3(C)CC3)NC(=O)[C@@H]3C[C@@H](Oc4cc(OC(C)C)nc5c(C)c(OC)ccc45)CN3C2=O)n1` [Compound 1002, (2R,6S,12Z,13aS,14aR,16aS)-6-({[1-(2-methoxyethyl)-1H-pyrazol-3-yl]carbonyl}amino)-2-{[7-methoxy-8-methyl-2-(propan-2-yloxy)quinolin-4-yl]oxy}-N-[(1-methylcyclopropyl)sulfonyl]-5,16-dioxo-1,2,3,6,7,8,9,10,11,13a,14,15,16,16a-tetradecahydrocyclopropa[e]pyrrolo[1,2-a][1,4]diazacyclopentadecine-14a(5H)-carboxamide], the half-maximal effective concentration (EC50) in test [1] (setting [6]) amounted to 0.38 nM; in test [2] (setting [6]), 0.32 nM; in test [3] (Huh-7, 72 h), 2.8 nM; in test [4] it was 0.12 nM; in test [5], 1.5 nM.

In the case of `COc1ccc2c(O[C@@H]3C[C@H]4C(=O)N[C@]5(C(=O)NS(=O)(=O)C6CC6)C[C@H]5/C=C\CCCCC[C@H](NC(=O)c5ccn(CC(F)(F)F)n5)C(=O)N4C3)cc(OC(C)C)nc2c1C` [Compound 1012, (2R,6S,12Z,13aS,14aR,16aS)-N-(cyclopropylsulfonyl)-2-{[7-methoxy-8-methyl-2-(propan-2-yloxy)quinolin-4-yl]oxy}-5,16-dioxo-6-({[1-(2,2,2-trifluoroethyl)-1H-pyrazol-3-yl]carbonyl}amino)-1,2,3,6,7,8,9,10,11,13a,14,15,16,16a-tetradecahydrocyclopropa[e]pyrrolo[1,2-a][1,4]diazacyclopentadecine-14a(5H)-carboxamide], the half-maximal effective concentration (EC50) is 0.29 nM in test [1] (setting [6]); 0.24 nM in test [2] (setting [6]); 1.9 nM in test [3] (Huh-7, 72 h); 0.31 nM in test [4].

In the case of `COc1ccc2c(O[C@@H]3C[C@H]4C(=O)N[C@]5(C(=O)NS(=O)(=O)C6(C)CC6)C[C@H]5/C=C\CCCCC[C@H](NC(=O)c5ccn(C)n5)C(=O)N4C3)cc(OCC(F)(F)F)nc2c1C` [Compound 1029, (2R,6S,12Z,13aS,14aR,16aS)-2-{[7-methoxy-8-methyl-2-(2,2,2-trifluoroethoxy)quinolin-4-yl]oxy}-N-[(1-methylcyclopropyl)sulfonyl]-6-{[(1-methyl-1H-pyrazol-3-yl)carbonyl]amino}-5,16-dioxo-1,2,3,6,7,8,9,10,11,13a,14,15,16,16a-tetradecahydrocyclopropa[e]pyrrolo[1,2-a][1,4]diazacyclopentadecine-14a(5H)-carboxamide], the EC50 in test [3] (Huh-7, 72 h) is 9.5 nM; in test [4], 0.25 nM; in test [5], 1.5 nM.

Take `CC[C@@H]1C[C@]1(NC(=O)[C@@H]1C[C@@H]2CN1C(=O)[C@H](C(C)(C)C)NC(=O)OCC(C)(C)CCCCc1cccc3c1CN(C3)C(=O)O2)C(=O)NS(=O)(=O)C1CC1` [reference compound]: the EC50 in test [1] (Table 2, clinical comparators, wildtype genotype 1a) came out at 0.4 nM; in test [2] (Table 2, clinical comparators, wildtype genotype 1b) it was 1.2 nM; in test [3], 3900 nM.
